# Measurements taken from ChEMBL document CHEMBL1201862, “PubChem BioAssay data set” (2004).
# Calls of active or inactive are those of the source.
# Assays:
# Fatty acid synthase [1] = target: T1, Fatty acid synthase (Homo sapiens, UniProt P49327); assay: inhibition of human FAS-TE enzyme activity – biochemical, kinetic fluorescence intensity, dose response (AID 624326); assay type: functional;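 further: rate of fluorescence rise from hydrolysis of a fluorogenic O-methyl fluorescein ester substrate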
# Fatty acid synthase [2] = target: T1, Fatty acid synthase; assay: inhibition of human FAS-TE enzyme activity – biochemical, endpoint fluorescence intensity, uHTS hits, dose response (AID 624327); assay type: functional;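 further: fluorescence from hydrolysis of an O-methyl fluorescein acyl ester substrate by the enzyme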
# [3] = viability of PTEN-deleted HCT116 cells – cell-based, HCT116 PTEN knockout, dose response (AID 1047); assay type: functional;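 further: HCT116 colon tumor cells with PTEN knocked out; cells exposed to compound for 60 hours before readout; potency for loss of cell viability measured by luminescence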
# [4] = viability of HCT116 lacking mutant beta-catenin – cell-based, human colon tumor, dose response (AID 1045); assay type: functional;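 further: HCT116 colon tumor cells with beta catenin knocked out; cells exposed to compound for 60 hours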
# [5] = microbe, parasite or virus in culture; assay type: functional; conditions: Mycobacterium tuberculosis
# [6] = target: T2, Calpain-2 catalytic subunit (Sus scrofa, UniProt P43367); assay: m-calpain protease blockers, concentration series – biochemical, fluorogenic peptide substrate, dose response (AID 1420); assay type: functional
# T2 sequence (P43367 whole entry): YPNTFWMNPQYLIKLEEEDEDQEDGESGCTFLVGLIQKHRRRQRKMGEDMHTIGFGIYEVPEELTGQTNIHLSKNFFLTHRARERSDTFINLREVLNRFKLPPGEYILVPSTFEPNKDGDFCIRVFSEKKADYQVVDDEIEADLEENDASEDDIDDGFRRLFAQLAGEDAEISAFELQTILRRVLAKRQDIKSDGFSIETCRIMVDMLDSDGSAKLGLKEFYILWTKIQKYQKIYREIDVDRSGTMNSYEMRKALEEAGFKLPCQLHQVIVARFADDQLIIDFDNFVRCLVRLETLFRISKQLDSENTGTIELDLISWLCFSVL
# [7] = target: T3, Oxysterols receptor LXR-beta (Homo sapiens, UniProt P55055); assay type: functional, cell-based;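 further: agonist activity at LXR measured by a cell-based luminescence readout across a dose range, run as a counterscreen for daf-12 agonists; HEK293 cells with Gal4-LXR fusion and GAL4-driven luciferase reporter; potency for activation of Gal4-LXR reporter so compounds are agonists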
# T3 sequence (P55055 whole entry): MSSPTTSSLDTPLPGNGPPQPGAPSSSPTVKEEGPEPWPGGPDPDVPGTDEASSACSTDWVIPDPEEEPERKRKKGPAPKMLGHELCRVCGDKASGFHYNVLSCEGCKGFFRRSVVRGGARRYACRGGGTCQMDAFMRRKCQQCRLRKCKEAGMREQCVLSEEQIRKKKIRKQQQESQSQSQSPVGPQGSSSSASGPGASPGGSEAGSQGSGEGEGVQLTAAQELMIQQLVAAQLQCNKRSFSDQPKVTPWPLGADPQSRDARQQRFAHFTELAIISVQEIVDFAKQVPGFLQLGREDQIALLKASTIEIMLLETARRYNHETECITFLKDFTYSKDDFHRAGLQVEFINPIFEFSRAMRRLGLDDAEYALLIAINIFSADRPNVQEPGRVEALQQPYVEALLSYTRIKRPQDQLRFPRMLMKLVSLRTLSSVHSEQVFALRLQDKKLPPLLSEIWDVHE
# [8] = target: T4, Ubiquitin-conjugating enzyme E2 N (Homo sapiens, UniProt P61088); assay type: functional;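 further: Dose-response confirmation in a TR-FRET assay detecting UBC13-driven polyubiquitin chain formation, inhibition measured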
# T4 sequence (P61088 whole entry): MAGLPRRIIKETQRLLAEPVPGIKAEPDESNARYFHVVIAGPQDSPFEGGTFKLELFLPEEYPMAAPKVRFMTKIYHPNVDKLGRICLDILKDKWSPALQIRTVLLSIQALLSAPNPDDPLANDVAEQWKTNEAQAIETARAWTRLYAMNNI
# [9] = target: T5, Apoptotic protease-activating factor 1 (Homo sapiens, UniProt O14727); assay type: functional
# T5 sequence (O14727 whole entry): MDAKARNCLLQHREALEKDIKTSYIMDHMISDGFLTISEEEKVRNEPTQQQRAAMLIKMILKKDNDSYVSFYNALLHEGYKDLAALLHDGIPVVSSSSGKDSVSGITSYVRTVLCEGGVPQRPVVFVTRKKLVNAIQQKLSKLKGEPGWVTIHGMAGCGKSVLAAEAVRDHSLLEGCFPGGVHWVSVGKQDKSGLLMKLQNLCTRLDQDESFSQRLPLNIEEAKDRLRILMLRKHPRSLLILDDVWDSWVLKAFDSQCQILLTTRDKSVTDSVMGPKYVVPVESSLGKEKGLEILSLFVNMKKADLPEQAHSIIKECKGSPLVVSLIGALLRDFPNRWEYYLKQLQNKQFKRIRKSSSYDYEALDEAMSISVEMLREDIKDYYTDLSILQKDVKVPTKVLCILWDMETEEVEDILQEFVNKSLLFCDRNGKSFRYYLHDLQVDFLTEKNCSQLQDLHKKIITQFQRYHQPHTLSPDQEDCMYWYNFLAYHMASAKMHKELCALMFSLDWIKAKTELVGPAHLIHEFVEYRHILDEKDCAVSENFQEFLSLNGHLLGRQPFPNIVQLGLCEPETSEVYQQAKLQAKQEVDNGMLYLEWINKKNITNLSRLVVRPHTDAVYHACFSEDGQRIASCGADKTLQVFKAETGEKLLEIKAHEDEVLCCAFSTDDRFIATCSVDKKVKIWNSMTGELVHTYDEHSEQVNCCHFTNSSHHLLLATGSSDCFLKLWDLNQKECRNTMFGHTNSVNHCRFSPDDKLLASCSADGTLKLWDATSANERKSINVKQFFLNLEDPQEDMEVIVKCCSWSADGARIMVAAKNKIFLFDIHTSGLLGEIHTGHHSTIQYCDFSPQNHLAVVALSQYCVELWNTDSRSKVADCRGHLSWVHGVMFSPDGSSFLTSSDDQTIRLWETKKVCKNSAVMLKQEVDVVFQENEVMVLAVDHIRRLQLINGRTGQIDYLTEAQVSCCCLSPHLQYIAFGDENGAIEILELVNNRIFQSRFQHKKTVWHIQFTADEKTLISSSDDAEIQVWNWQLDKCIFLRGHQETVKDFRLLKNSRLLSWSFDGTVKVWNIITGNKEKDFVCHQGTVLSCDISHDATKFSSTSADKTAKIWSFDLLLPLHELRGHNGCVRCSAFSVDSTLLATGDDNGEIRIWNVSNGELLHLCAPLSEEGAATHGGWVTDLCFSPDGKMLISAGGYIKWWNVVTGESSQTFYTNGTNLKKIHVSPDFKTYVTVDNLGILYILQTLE
# [10] = target: T6, Polyadenylate-binding protein 1 (Homo sapiens, UniProt P11940); assay: MLLE binding blockers, Cy5 peptide tracer – biochemical, fluorescence polarization, Cy5-PAM2 peptide, secondary, miRNA deadenylation inhibitor project, dose response (AID 602260); assay type: functional; conditions: read-out: IC50_Mean
# [11] = target: T6, Polyadenylate-binding protein 1; assay: MLLE domain peptide-binding blockers, IC50 – biochemical, fluorescence polarization, FITC-PAM2 peptide, dose response (AID 602259); assay type: functional; conditions: read-out: IC50_Mean
# [12] = Luminescence Cell-Based Dose Retest to Confirm Inhibitors of Cancer Stem Cells. [Related pubchem assays (depositor defined):AID2717, AID2721]; assay type: functional; conditions: Homo sapiens
# H4 = assay: Luminescence Cell-Based Dose Response HTS to Identify Activators of 5'UTR Stem-Loop Driven Prion Protein mRNA Translation in H4 Neuroglioblastoma Cells. [Related pubchem assays: 1829 (Project Summary), 1814 (Primary HTS)]; assay type: functional; conditions: Homo sapiens
# [13] = NIH-3T3 fibroblast cytotoxicity, dose response, cytotoxicity control, cell-based, fluorescence, Alamar Blue, secondary assay (AID 2327); assay type: functional;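 further: NIH-3T3 mouse fibroblasts cultured with fluconazole at 8 µg/mL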
# Streptokinase A = target: T7, Streptokinase A (Streptococcus pyogenes serotype M1, UniProt P10520); assay: viability-normalized secreted streptokinase activity reduction – plasminogen activation absorbance, OD405, dose response (AID 1914); assay type: functional, Streptococcus pyogenes M1 GAS;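 further: secreted streptokinase activity via plasminogen activation per viability signal from cell pellet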
# T7 sequence (P10520 whole entry): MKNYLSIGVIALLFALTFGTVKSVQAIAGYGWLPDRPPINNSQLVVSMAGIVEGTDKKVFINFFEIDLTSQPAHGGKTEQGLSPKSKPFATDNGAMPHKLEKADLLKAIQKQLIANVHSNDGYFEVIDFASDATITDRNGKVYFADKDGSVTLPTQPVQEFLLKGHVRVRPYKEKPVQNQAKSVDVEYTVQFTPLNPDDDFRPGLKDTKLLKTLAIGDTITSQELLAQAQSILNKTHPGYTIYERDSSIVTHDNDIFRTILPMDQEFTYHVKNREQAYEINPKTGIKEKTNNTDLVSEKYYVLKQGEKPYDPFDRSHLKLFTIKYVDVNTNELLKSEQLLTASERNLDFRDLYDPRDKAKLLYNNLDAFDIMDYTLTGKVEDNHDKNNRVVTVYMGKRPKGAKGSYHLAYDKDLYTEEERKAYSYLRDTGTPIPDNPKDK
# [14] = NIH3T3 cell viability loss – ATP luminescence, mouse fibroblasts, counter-screen, dose response (AID 2010); assay type: functional, cell-based;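 further: cells exposed to compound for about 90 hours before reading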
# [15] = Trypanosoma cruzi growth suppression in host cells – NIH3T3 host cells, beta-gal luminescence, confirmation (AID 2044); assay type: functional, cell-based;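 further: intracellular parasites grown in NIH/3T3 mouse fibroblasts as host cells; luminescent beta-galactosidase reporter signal from transgenic T. cruzi replicating inside host cells; inhibitors lower the luminescence signal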
# Streptococcus = assay: GAS UMAA2166 growth inhibition – luminescence, BacTiterGlo, counter-screen for streptokinase expression inhibitor project, dose response (AID 1915); assay type: functional, organism-based;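 further: potency for reduction of bacterial viability or growth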
# [16] = test system: Streptococcus sp. 'group A'; assay: Streptococcus pyogenes SK(-)GAS viability under kanamycin – luminescence, BacTiterGlo, confirmation, counter-screen for streptokinase expression inhibitor project, dose response (AID 1900); assay type: functional, organism-based
# [17] = blockers of HIV-1 envelope-mediated cell-cell fusion – cherry-pick, dose response (AID 652057); assay type: functional, cell-based
# [18] = off-target signal loss in HeLa-CEM21 co-culture – HeLa F-luc CTL cells, cherry-picked, counter-screen for HIV-1 Env fusion inhibitor project, dose response (AID 652040); assay type: functional, cell-based;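 further: potency for signal decrease marking cytotoxic or nonspecific inhibition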
# [19] = blockers of HIV-1 ZM109 envelope-driven cell-cell fusion – HeLa effector, CEM target cells, luciferase, cherry-pick, dose response (AID 652058); assay type: functional, cell-based;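 further: luciferase signal from HIV-1 Env mediated cell-cell fusion of effector and target cells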
# [20] = HIV-1 AD8 envelope cell-cell fusion blockers – cherry-pick, dose response (AID 652062); assay type: functional, cell-based;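 further: luciferase signal from cell-cell fusion driven by HIV-1 clade B AD8 Env; potency is for inhibitors of fusion seen as a drop in luminescence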
# T1 sequence (P49327 whole entry): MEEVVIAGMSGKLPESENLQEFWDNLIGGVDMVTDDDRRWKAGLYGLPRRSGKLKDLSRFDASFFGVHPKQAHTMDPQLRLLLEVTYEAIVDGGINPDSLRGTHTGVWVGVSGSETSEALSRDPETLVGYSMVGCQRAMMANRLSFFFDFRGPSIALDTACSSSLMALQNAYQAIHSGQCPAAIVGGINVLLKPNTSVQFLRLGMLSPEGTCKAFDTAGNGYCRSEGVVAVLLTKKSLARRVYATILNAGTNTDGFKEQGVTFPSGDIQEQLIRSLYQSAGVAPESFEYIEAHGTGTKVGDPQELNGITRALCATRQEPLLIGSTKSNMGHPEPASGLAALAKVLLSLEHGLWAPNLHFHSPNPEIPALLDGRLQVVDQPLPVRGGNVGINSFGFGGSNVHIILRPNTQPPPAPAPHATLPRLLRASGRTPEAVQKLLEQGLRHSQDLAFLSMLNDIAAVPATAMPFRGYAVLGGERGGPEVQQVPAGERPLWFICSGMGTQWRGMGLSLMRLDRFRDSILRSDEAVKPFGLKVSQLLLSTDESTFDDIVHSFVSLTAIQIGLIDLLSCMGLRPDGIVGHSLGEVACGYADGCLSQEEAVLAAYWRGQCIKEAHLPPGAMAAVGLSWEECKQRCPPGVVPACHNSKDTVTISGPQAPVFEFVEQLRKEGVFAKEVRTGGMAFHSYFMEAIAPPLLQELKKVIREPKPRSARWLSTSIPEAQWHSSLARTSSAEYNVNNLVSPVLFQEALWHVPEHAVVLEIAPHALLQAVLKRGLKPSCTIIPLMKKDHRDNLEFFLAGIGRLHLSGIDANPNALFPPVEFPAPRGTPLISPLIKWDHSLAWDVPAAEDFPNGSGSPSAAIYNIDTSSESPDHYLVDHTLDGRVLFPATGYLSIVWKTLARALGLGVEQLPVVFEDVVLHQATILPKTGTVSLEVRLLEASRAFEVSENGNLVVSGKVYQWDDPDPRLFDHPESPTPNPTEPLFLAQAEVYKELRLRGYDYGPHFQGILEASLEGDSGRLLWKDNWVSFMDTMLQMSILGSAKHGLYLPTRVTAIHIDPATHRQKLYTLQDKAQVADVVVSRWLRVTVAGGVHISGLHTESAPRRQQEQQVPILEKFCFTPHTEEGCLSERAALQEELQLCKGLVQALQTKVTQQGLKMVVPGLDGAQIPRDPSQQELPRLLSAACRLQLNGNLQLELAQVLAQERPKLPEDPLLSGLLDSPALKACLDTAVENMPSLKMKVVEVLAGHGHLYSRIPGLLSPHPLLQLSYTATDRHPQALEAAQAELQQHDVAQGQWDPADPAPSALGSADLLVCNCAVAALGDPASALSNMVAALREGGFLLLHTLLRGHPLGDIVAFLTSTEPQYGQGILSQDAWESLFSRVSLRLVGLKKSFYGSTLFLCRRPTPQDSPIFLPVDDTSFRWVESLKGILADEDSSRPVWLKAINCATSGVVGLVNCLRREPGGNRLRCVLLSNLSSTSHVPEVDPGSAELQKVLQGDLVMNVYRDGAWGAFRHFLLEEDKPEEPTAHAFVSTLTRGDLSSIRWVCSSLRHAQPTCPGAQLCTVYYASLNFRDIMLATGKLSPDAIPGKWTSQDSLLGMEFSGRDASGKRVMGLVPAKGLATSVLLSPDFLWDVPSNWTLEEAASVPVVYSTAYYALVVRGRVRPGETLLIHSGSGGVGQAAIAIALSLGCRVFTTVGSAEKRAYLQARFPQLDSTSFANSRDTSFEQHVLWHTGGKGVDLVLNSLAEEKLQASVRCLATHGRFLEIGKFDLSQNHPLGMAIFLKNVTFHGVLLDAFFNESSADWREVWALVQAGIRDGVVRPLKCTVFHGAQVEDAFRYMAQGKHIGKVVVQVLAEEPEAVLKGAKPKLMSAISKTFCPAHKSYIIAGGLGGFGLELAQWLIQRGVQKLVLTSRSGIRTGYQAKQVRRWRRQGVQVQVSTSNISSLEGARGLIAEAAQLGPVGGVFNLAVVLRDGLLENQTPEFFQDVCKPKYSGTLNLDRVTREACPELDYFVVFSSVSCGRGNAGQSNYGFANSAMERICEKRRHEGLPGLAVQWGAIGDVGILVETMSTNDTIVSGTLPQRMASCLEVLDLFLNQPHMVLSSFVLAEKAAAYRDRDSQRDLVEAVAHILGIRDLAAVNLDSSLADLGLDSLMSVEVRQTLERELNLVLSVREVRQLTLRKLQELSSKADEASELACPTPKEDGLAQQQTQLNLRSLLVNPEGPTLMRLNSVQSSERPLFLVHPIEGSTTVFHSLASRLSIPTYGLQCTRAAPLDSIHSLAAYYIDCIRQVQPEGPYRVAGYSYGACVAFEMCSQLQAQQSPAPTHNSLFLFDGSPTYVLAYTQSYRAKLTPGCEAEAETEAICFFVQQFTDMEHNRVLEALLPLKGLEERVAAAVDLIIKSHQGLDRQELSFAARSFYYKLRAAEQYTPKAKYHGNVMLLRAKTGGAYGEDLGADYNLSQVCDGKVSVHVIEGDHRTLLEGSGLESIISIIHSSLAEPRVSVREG
# T6 sequence (P11940 whole entry, the tested form may be a part): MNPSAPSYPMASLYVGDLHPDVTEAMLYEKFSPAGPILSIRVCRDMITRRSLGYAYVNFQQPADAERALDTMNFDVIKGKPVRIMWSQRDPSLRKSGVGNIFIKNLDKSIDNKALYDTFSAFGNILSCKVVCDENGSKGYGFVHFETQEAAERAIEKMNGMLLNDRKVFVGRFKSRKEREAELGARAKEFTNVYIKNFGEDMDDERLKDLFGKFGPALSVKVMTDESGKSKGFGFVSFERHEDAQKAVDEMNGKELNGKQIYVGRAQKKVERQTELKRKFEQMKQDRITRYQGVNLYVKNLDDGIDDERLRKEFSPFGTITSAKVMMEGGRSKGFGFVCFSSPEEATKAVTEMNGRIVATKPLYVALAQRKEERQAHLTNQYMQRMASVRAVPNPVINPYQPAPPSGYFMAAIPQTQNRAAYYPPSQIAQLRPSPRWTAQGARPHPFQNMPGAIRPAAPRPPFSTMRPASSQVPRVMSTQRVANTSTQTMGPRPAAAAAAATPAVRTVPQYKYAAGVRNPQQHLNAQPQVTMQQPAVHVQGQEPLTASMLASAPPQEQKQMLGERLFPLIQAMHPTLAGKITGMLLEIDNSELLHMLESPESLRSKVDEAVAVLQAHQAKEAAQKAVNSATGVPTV
smiles,measurement,setting,value
Cc1cc(C(=O)OCC(=O)Nc2cccc([N+](=O)[O-])c2)c(C)o1,IC50,Fatty acid synthase [1],17.2 µM (active)
same,IC50,Fatty acid synthase [2],9.82 µM (active)
CS(=O)(=O)c1ccc(-c2csc(-c3cccnc3)n2)cc1,IC50,Fatty acid synthase [1],7.66 µM (active)
same,IC50,Fatty acid synthase [2],10.3 µM (active)
CCO/C(O)=C1\C(C)=NC(SCC(=O)Nc2nc(C)cs2)=C(C#N)C1c1cccs1 (stereo not drawn),EC50,[3],14.5 µM (active)
same,EC50,[4],16.6 µM (active)
same,CC50,[5],> 40 µM (active)
CCc1nnc(NS(=O)(=O)c2ccc(NC(=S)NC(=O)c3ccc(Br)cc3)cc2)s1,IC50,[6],6.7 µM (active)
Cc1cc(C)n2c(NC3CCCC3)c(-c3cc4ccccc4o3)nc2n1,EC50,[7],> 67.5 µM (inactive)
COc1ccc(C[C@H]2CN3C(=NC[C@H]3Cc3ccccc3)N2CCNC(=O)c2ccc(C)c(Br)c2)cc1,IC50,[8],> 20 µM (inactive)
same,IC50,[9],> 100 µM (inactive)
COc1ccc(/C=N/OCC(=O)Nc2ccc3c(c2)OCO3)c(OC)c1,IC50,[6],> 50 µM (not active)
CN(c1ccccc1)S(=O)(=O)c1cccc(C(=O)NC2CCCCC2)c1,IC50,[10],> 66 µM (inactive)
same,IC50,[11],> 66 µM (inactive)
Fc1ccccc1COc1ccc(Br)cc1CNCc1ccncc1,IC50,[6],> 50 µM (not active)
Cc1cc(N2CCN(c3ccc(C(F)(F)F)cc3[N+](=O)[O-])CC2)c2ccccc2n1,CC50,[5],> 40 µM (active)
same,AC50,[12],0.726 µM (active)
O=C(C1=C[C@@H](c2csc3ccccc23)C[C@@H](OCCCCO)O1)N1CCN(Cc2ccc3c(c2)OCO3)CC1,CC50,[5],> 40 µM (active)
Cc1cc(C(=O)NC2CCCCC2)c(C)n1-c1ccc(F)cc1,EC50,[7],> 67.5 µM (inactive)
same,EC50,H4,0.455 µM (active)
COc1ccc2[nH]c(C(=O)Nc3cccc(C)n3)cc2c1,EC50,[7],> 67.5 µM (inactive)
Cc1cc(C(=O)NC2=NCCS2)cs1,EC50,[7],> 67.5 µM (inactive)
Cn1c(-c2ccc(F)cc2)cnc1NCc1cccc([N+](=O)[O-])c1,IC50,Fatty acid synthase [1],9.83 µM (active)
same,IC50,Fatty acid synthase [2],5.28 µM (active)
O=C(CCCN1C(=O)c2ccccc2C1=O)C1=C(NCCO)CC(c2ccccc2)CC1=O (stereo not drawn),EC50,[13],> 150 µM (inactive)
same,IC50,[6],30.4 µM (not active)
Cc1cc(C)nc(-n2nc(C)c(Sc3ccc(F)cc3)c2N)n1,EC50,Streptokinase A,> 150 µM (not active)
same,EC50,[14],> 60 µM (not active)
same,EC50,[7],> 67.5 µM (inactive)
same,EC50,[15],2.01 µM (active)
same,EC50,Streptococcus,> 150 µM (not active)
same,EC50,[16],> 150 µM (not active)
CN(C)S(=O)(=O)c1ccc2oc(SCC(=O)Nc3ccccc3F)nc2c1,IC50,[9],7.98 µM (active)
CCOc1ccc(NC(=S)NC(=O)c2cccnc2)c([N+](=O)[O-])c1,IC50,[10],> 66 µM (inactive)
same,IC50,[11],> 66 µM (inactive)
COCCN(C(=O)CSc1ccc2c(c1)OCCO2)c1c(N)n(CC(C)C)c(=O)[nH]c1=O,IC50,[10],> 66 µM (inactive)
same,IC50,[11],> 66 µM (inactive)
CCN(CC(O)Cn1c2ccccc2c2ccccc21)S(=O)(=O)c1ccc(C)cc1 (stereo not drawn),IC50,[6],2.61 µM (not active)
CN(C1CCCCC1)S(=O)(=O)c1ccc(NC(=S)NC(=O)c2cccs2)cc1,IC50,[10],> 66 µM (inactive)
same,IC50,[11],> 66 µM (inactive)
COc1cc2c(c(OCC(=O)NC(C)C)c1)C(=O)O[C@@H](C)CCCC(=O)CCCCC2,AC50,[17],4.35 µM (active)
same,AC50,[18],5.78 µM (active)
same,AC50,[19],4.75 µM (active)
same,IC50,[10],> 66 µM (inactive)
same,AC50,[20],11.3 µM (active)
same,IC50,[11],63.7 µM (inactive)
Nc1nc(-c2cccc(F)c2)cs1,IC50,[10],> 66 µM (inactive)
same,IC50,[11],> 66 µM (inactive)
Cc1cc(NC(=S)N(Cc2ccc(Br)cc2)Cc2ccc(C(=O)O)cc2)ccc1Cl,IC50,[6],4.69 µM (not active)
Cc1cc(-c2ccncc2)n2ncc(-c3ccccc3)c2n1,EC50,[7],> 67.6 µM (inactive)
C=CCN(CC=C)Cc1nc(N)nc(Nc2ccccc2C)n1,IC50,[6],< 0.4 µM (not active)
CCN(CC(=O)Nc1ccccc1OC)C(=O)c1ccccc1Sc1ccccc1C#N,IC50,[9],> 100 µM (inactive)
CCOC(=O)N1CCC(NC(=O)c2cc3ccccn3n2)CC1,EC50,[7],> 67.5 µM (inactive)
